Data taken from publication PMC5947527 (Chemical Science, 2015).
“Also recorded” adds a separate entry of the source. Non-standard residues stand in square brackets, D forms with d. Residues, ends and D or L forms follow the SMILES beside them. *: point of attachment. NBD = O=[N+]([O-])c1ccc(*)c2nonc12; Nle = CCCC[C@H](N)C(=O)O; Ahx = NCCCCCC(=O)O

Legend:
[1] = Chemical stability on storage in phosphate buffered saline at 37 °C (HPLC); assay type: physicochemical; conditions: 1 mg mL–1 in PBS, day 0 vs day 3, HPLC, detection at 380 nm
Protocol: This modification is particularly of relevance due to the expected in vivo inflammatory oxidative environment within an infected pneumonic lung due to infiltrating host inflammatory cells such as neutrophils,[13] and therefore all subsequent modifications incorporated Nle in place of Met.
HPLC chromatograms (gradient acetonitrile + 0.1% formic acid/water + 0.1% formic acid from 5/95 to 95/5 over 10 min, then isocratic for 4 min; detection at 380 nm). UBI-2 (1 mg mL^–1 in PBS, upper panels) and UBI-3 (1 mg mL^–1 in PBS, lower panels) at (A) day 0 and (B) day 3 after incubation at 37 °C.

[2] = system: methicillin-sensitive Staphylococcus aureus (MSSA), Pseudomonas aeruginosa and Klebsiella pneumoniae; assay: Confocal bacterial labelling, UBI-2 vs UBI-3 on a panel of bacteria; assay type: cell-based; conditions: fluorescence normalised to UBI-2, mean ± SEM, n ≥ 3
Protocol: Fig. 3 UBI-3 retains specificity and sensitivity for bacterial labelling. […] Panels show bacteria labelled with either UBI-2 or UBI-3 with quantification of fluorescence (values normalised to UBI-2) (Bars represent mean, error bars represent standard error of mean, n ≥ 3, ns = not significant, scale bar = 10 μm). (B) Quantification from confocal images of UBI-3 (10 μM) imaging a panel of bacteria (statistical analyses shown compared to unlabelled bacteria, n ≥ 3 for each bacteria, *** = p < 0.001). […] [MRSA: methicillin-resistant Staphylococcus aureus, MSSA: methicillin-sensitive Staphylococcus aureus]. […]
Confocal Analysis and Fluorescence Quantification: 8-Well Lab-Tek II Confocal Chambers (VWR, PA, USA) were coated in fibronectin (for neutrophil experiments) or poly-d-lysine (for bacteria) at 37 °C for 20 minutes, then washed in PBS prior to bacterial innoculation. […] Exposure to 488 nm light was limited to 5% of the maximum laser power in order to minimize toxicity. ‘Green’ fluorescence (for FAM and NBD) was excited with a dedicated 488 nm line and emitted light detected with meta detector (500-530 nM).
Syto nuclear and dyes were excited with a dedicated 543 nm line, and emitted light detected with meta detector (570-610 nM). Fields of view were chosen based on the counterstain and at least three fields of view were recorded for each condition. […]

## CCCC[C@H](NC(=O)[C@H](CCCNC(=N)N)NC(=O)[C@H](CCCNC(=N)N)NC(=O)[C@H](CCCCN)NC(=O)[C@H](C)NC(=O)[C@H](CCCNC(=N)N)NC(=O)CNC(=O)[C@@H](NC(=O)CCCCCNc1ccc([N+](=O)[O-])c2nonc12)[C@@H](C)O)C(=O)N[C@@H](CCC(N)=O)C(=O)N[C@@H](Cc1ccc(O)cc1)C(=O)N[C@@H](CC(N)=O)C(=O)N[C@@H](CCCNC(=N)N)C(=O)N[C@@H](CCCNC(=N)N)C(N)=O [UBI-3] ({NBD-Ahx}-TGRAKRR[Nle]QYNRR-NH2)
[1]
  chemical stability in PBS at 37 °C: prevented by substitution of the Met to Nle
[2]
  bacterial labelling, Met vs Nle variant: retained bacterial labelling; also recorded: same fluorescence intensity
